One experiment has as its system HIV-1. The experiment in a line: HIV-1 single-round infectious luciferase reporter virus (pseudotype) assay in HeLa CD4 CCR5 cells. In kind it is cell-based. To be noted: Human immunodeficiency virus 1, HeLa-CD4/CCR5, read-out: Average % inhibition at 10 μM. The gist of the method: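 Reporter pseudovirus produced in 293 cells infected HeLa cells expressing CD4/CCR5 at MOI ~0.01, with compound present at <10 μM final. Infection was quantified as luciferase luminescence after 72 h.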
(In general: A reporter such as luciferase makes a cellular process visible.)
Regarding `C[C@@H]1CN(C(=O)c2ccccc2)CCN1C(=O)C(=O)c1c[nH]c2c(-c3ccc(F)cc3)nccc12` [Example 1, 1-benzoyl-3-(R)-methyl-4-[(7-(4-fluorophenyl)-6-azaindol-3-yl)-oxoacetyl]-piperazine], the inhibition at 10 µM came out at 56%.

The same experiment, now with this note: Human immunodeficiency virus 1, HeLa-CD4/CCR5, read-out: EC50 Group from TABLE 1, HeLa CD4 CCR5 cells, single-round infectious luciferase reporter virus.
For `C[C@@H]1CN(C(=O)c2ccccc2)CCN1C(=O)C(=O)c1c[nH]c2c(-c3ccc(F)cc3)nccc12` [Example 1, 1-benzoyl-3-(R)-methyl-4-[(7-(4-fluorophenyl)-6-azaindol-3-yl)-oxoacetyl]-piperazine], the EC50 was less than 1000 nM. On the same count and under the same terms, the figure for `COc1cnc(-n2ccc(CC(C)C)n2)c2[nH]cc(C(=O)C(=O)N3CCN(C(=O)c4ccccc4)CC3)c12` [Example 281, 1-benzoyl-4-[(4-methoxy-7-(3-isobutyl-pyrazol-1-yl)-6-azaindol-3-yl)-oxoacetyl]piperazine] is less than 1000 nM; for `O=C(C(=O)N1CCN(C(=O)c2ccccc2)CC1)c1c[nH]c2c(-c3cc4ccccc4o3)nccc12` [Example 8, 1-benzoyl-4-[(7-(benzofuran-2-yl)-6-azaindol-3-yl)-oxoacetyl]piperazine] it is less than 1000 nM.

Regarding `COc1cnc(-n2ncnc2C)c2[nH]cc(C(=O)C(=O)N3CCN(C(=O)c4ccccc4)CC3)c12` [Example 319], the half-maximal effective concentration (EC50) was less than 1000 nM. Still for that read-out and setting: the figure for `CCCCCc1ccn(-c2ncc(OC)c3c(C(=O)C(=O)N4CCN(C(=O)c5ccccc5)CC4)c[nH]c23)n1` [Example 250, 1-benzoyl-4-[(4-methoxy-7-(3-n-pentyl-pyrazol-1-yl)-6-azaindol-3-yl)-oxoacetyl]piperazine] is less than 1000 nM; for `C[C@@H]1CN(C(=O)c2ccccc2)CCN1C(=O)C(=O)c1c[nH]c2c(-c3ccco3)nccc12` [Example 6, 1-benzoyl-3-®-methyl-4-[(7-(furan-2-yl)-6-azaindol-3-yl)-oxoacetyl]piperazine] it is less than 1000 nM.

With `C[C@@H]1CN(C(=O)c2ccccn2)CCN1C(=O)C(=O)c1c[nH]c2c(-c3cnc(N(C)C)cn3)nccc12` [Example 105, (R)-1-picolinoyl-3-methyl-4-[(7-(2-dimethylamino-pyrazin-5-yl)-6-azaindol-3-yl)-oxoacetyl]piperazine], the EC50 was less than 1000 nM. Same read-out and setting: the figure for `COc1cnc(-c2cnc(C3CC3)cn2)c2[nH]cc(C(=O)C(=O)N3CCN(C(=O)c4ccccn4)CC3)c12` [Example 181, 1-picolinoyl-4-[(4-methoxy-7-(2-cyclopropanyl-pyrazin-5-yl)-6-azaindol-3-yl)-oxoacetyl]piperazine] is less than 1000 nM; for `COc1cnc(-c2cnc(CC(C)C)s2)c2[nH]cc(C(=O)C(=O)N3CCN(C(=O)c4ccccc4)CC3)c12` [Example 90, 1-benzoyl-4-[(4-methoxy-7-(2-isobutyl-thiazol-5-yl)-6-azaindol-3-yl)-oxoacetyl]piperazine] it is less than 1000 nM; for `COc1cnc(-c2cc3ccccc3o2)c2[nH]cc(C(=O)C(=O)N3CCN(C(=O)c4ccccc4)CC3)c12` [Example 98] it is less than 1000 nM. On the same count and under the same terms, the result for `CCOc1ncc(-c2ncc(OC)c3c(C(=O)C(=O)N4CCN(C(=O)c5ccccc5)CC4)c[nH]c23)s1` [Example 45, 1-benzoyl-4-[(4-methoxy-7-(2-ethoxy-thiazol-5-yl)-6-azaindol-3-yl)-oxoacetyl]piperazine] reads less than 1000 nM; that for `COc1cnc(-n2ccc(C(F)(F)F)n2)c2[nH]cc(C(=O)C(=O)N3CCN(C(=O)c4ccccc4)CC3)c12` [Example 192, 1-benzoyl-4-[(4-methoxy-7-(3-trifluoromethylpyrazol-1-yl)-6-azaindol-3-yl)-oxoacetyl]piperazine], less than 1000 nM. For `CCOC(=O)c1cc(C)nn1-c1ncc(F)c2c(C(=O)C(=O)N3CCN(C(=O)c4ccccc4)CC3)c[nH]c12` [Example 311], the 50% effective concentration (EC50) was less than 1000 nM. Still for that read-out and setting: the result for `O=C(C(=O)N1CCN(C(=O)c2ccccc2)CC1)c1c[nH]c2c(-c3ccncn3)ncc(F)c12` [Example 125] reads less than 1000 nM; that for `COc1cnc(-c2cnc(N3CCCC3)cn2)c2[nH]cc(C(=O)C(=O)N3CCN(C(=O)c4ccccn4)CC3)c12` [Example 185], less than 1000 nM. With `COc1cnc(-c2cnc(O)cn2)c2[nH]cc(C(=O)C(=O)N3CCN(C(=O)c4ccccc4)CC3)c12` [Example 97, 1-(benzoyl)-4-[(4-methoxy-7-(2-hydroxyl-pyrazin-5-yl)-6-azaindol-3-yl)-oxoacetyl]piperazine], the concentration giving a half-maximal response (EC50) is less than 1000 nM.

As to `COc1cnc(-c2nccn2C)c2[nH]cc(C(=O)C(=O)N3CCN(C(=O)c4ccccc4)CC3)c12` [Example 27, 1-benzoyl-4-[(4-methoxy-7-(1-methyl-imidazol-2-yl)-6-azaindol-3-yl)-oxoacetyl]piperazine], the EC50 is less than 1000 nM.

Regarding `COc1cnc(-c2cnccn2)c2[nH]cc(C(=O)C(=O)N3CCN(C(=O)c4ccccc4)CC3)c12` [Example 32, 1-benzoyl-4-[(4-methoxy-7-(pyrazin-2-yl)-6-azaindol-3-yl)-oxoacetyl]piperazine], the 50% effective concentration (EC50) is less than 1000 nM.

For the compound `COc1cnc(-n2ccc(CN3CCS(=O)(=O)CC3)n2)c2[nH]cc(C(=O)C(=O)N3CCN(C(=O)c4ccccc4)CC3)c12` [Example 280, 1-benzoyl-4-[(4-methoxy-7-(3-(1,1-dioxo-thiomorpholin-4-yl)methyl-pyrazol-1-yl)-6-azaindol-3-yl)-oxoacetyl]piperazine], the EC50 was less than 1000 nM. Regarding `O=C(C(=O)N1CCN(C(=O)c2ccccc2)CC1)c1c[nH]c2c(-c3ccc(Cl)cc3)nccc12` [Example 2, 1-benzoyl-4-[(7-(4-chlorophenyl)-6-azaindol-3-yl)-oxoacetyl]piperazine], the concentration for a half-maximal effect (EC50) is less than 1000 nM. For the compound `CC(C)(C)OC(=O)N1CCN(C(=O)C(=O)c2c[nH]c3c(-c4cnccn4)ncc(Cl)c23)CC1` [Example 165], the EC50 was less than 1000 nM.

With `CNCc1ccn(-c2ncc(OC)c3c(C(=O)C(=O)N4CCN(C(=O)c5ccccc5)CC4)c[nH]c23)n1` [Example 283, 1-benzoyl-4-[(4-methoxy-7-(3-methylaminomethyl-pyrazol-1-yl)-6-azaindol-3-yl)-oxoacetyl]piperazine], the concentration giving a half-maximal response (EC50) was less than 1000 nM. Still for that read-out and setting: the result for `COc1cnc(-c2cnccn2)c2[nH]cc(C(=O)C(=O)N3CCN(C(=O)c4ncccc4C)CC3)c12` [Example 200] reads less than 1000 nM; that for `COc1cnc(-c2cnc(N3CCCC3=O)s2)c2[nH]cc(C(=O)C(=O)N3CCN(C(=O)c4ccccc4)CC3)c12` [Example 116, 1-benzoyl-4-[(4-methoxy-7-((2-pyrrolidinon-1-yl)-thiazol-5-yl)-6-azaindol-3-yl)-oxoacetyl]piperazine], less than 1000 nM.

The same experiment, now with this note: Human immunodeficiency virus 1, HeLa-CD4/CCR5, read-out: EC50 Group from Table 1, Table 2-1; HeLa CD4 CCR5 cells, single-round luciferase reporter virus.
As for `COc1cnc(-n2cnc(NCc3cccnc3)n2)c2[nH]cc(C(=O)C(=O)N3CCN(C(=O)c4ccccc4)[C@H](C)C3)c12` [Example 261, (R)-1-benzoyl-2-methyl-4-[(4-methoxy-7-(3-(3-pyridinemethylamino)-1,2,4-triazol-1-yl)-6-azaindol-3-yl)-oxoacetyl]piperazine], the EC50 was less than 1000 nM. Same read-out and setting: the result for `COc1cnc(-n2nnc3ccccc32)c2[nH]cc(C(=O)C(=O)N3CCN(C(=O)c4ccccc4)[C@H](C)C3)c12` [Example 246, (R)-1-benzoyl-2-methyl-4-[(4-methoxy-7-(1,2,3-benzotriazol-1-yl)-6-azaindol-3-yl)-oxoacetyl]piperazine] reads less than 1000 nM; that for `COc1cnc(-c2cnccn2)c2[nH]cc(C(=O)C(=O)N3CCN(C(=O)c4cccnc4)[C@H](C)C3)c12` [Example 270], less than 1000 nM; that for `COc1cnc(-c2cnc(O)cn2)c2[nH]cc(C(=O)C(=O)N3CCN(C(=O)c4ccccn4)[C@H](C)C3)c12` [Example 272], less than 1000 nM. In the case of `COc1cnc(-n2ccc(-c3ccc(C)nc3)n2)c2[nH]cc(C(=O)C(=O)N3CCN(C(=O)c4ccccc4)[C@H](C)C3)c12` [Example 263, (R)-1-benzoyl-2-methyl-4-[(4-methoxy-7-(3-(2-methylpyridin-5-yl)pyrazol-1-yl)-6-azaindol-3-yl)-oxoacetyl]piperazine], the 50% effective concentration (EC50) was less than 1000 nM. On the same count and under the same terms, the result for `COc1cnc(-n2cc(CO)cn2)c2[nH]cc(C(=O)C(=O)N3CCN(C(=O)c4ccccc4)C[C@H]3C)c12` [Example 237, (R)-1-benzoyl-3-methyl-4-[(4-methoxy-7-(4-hydroxylmethyl-pyrazol-1-yl)-6-azaindol-3-yl)-oxoacetyl]piperazine] reads less than 1000 nM; that for `COc1cnc(-c2ccc(S(C)(=O)=O)cc2)c2[nH]cc(C(=O)C(=O)N3CCN(C(=O)c4ccccn4)[C@H](C)C3)c12` [Example 268], less than 1000 nM. As to `COc1cnc(-n2ccc(CCC(=O)O)n2)c2[nH]cc(C(=O)C(=O)N3CCN(C(=O)c4ccccc4)[C@H](C)C3)c12` [Example 234, (R)-1-benzoyl-2-methyl-4-[(4-methoxy-7-(3-(2-hydroxylcarbonylethan-1-yl)-pyrazol-1-yl)-6-azaindol-3-yl)-oxoacetyl]piperazine], the EC50 is less than 1000 nM. In the case of `COc1cnc(-c2nc(-c3ccc(C)cc3)n[nH]2)c2[nH]cc(C(=O)C(=O)N3CCN(C(=O)c4ccccc4)[C@H](C)C3)c12` [Example 337], the EC50 is less than 1000 nM.

Staying with this experiment, now noted: Human immunodeficiency virus 1, HeLa-CD4/CCR5, read-out: EC50 Group from Table 1, Table 4; HeLa CD4 CCR5 cells, single-round luciferase reporter virus.
As for `C[C@@H]1CN(C(=O)c2ccccc2)CCN1C(=O)C(=O)c1c[nH]c2c(-c3cnccn3)ccnc12` [Example 52, 1-benzoyl-3-(R)-methyl-4-[(7-(pyrazin-2-yl)-4-azaindol-3-yl)-oxoacetyl]piperazine], the EC50 was less than 1000 nM. Still for that read-out and setting: the figure for `Cc1csc(NC(=O)c2ccnc3c(C(=O)C(=O)N4CCN(C(=O)c5ccccc5)C[C@H]4C)c[nH]c23)n1` [Example 136, (R)-1-benzoyl-3-methyl-4-[(7-(4-methylthiazol-2-yl)aminocarbonyl-4-azaindol-3-yl)-oxoacetyl]piperazine] is less than 1000 nM. Still for that read-out and setting: the figure for `CCOc1ncc(-c2ccnc3c(C(=O)C(=O)N4CCN(C(=O)c5ccccc5)C[C@H]4C)c[nH]c23)s1` [Example 54, 1-benzoyl-3-(R)-methyl-4-[(7-(2-ethoxy-thiazol-5-yl)-4-azaindol-3-yl)-oxoacetyl]piperazine] is less than 1000 nM.

By inhibition is commonly meant the relative decrease from the control value, in per cent. Broadly, the EC50 is the concentration at which the effect is half-maximal.

Source of the values: patent US20050090522A1 (priority 2001, published 2005).
